Key:
Format in all cases: in vivo
[1] = tested on: velvetleaf (Abutilon theophrasti, ABUTH); experiment: Pre-emerge test, greenhouse herbicide activity screening; conditions: for phytotoxicity rating ABUTH: pre-emerge, 14 days after application, scale 0-100; for Pre-emerge Herbicidal Activity ABUTH: phytotoxicity rating 0-100, 14 days after application
Method in brief: (§1)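 Applied at 15–1000 g ai/ha from acetone in 187 l/ha spray volume. Post-emergence applications included 0.25% v/v non-ionic surfactant and reached plants sown 8–21 days before. Pre-emergence applications were incorporated by surface watering. Efficacy or crop damage was rated on a 0–100 scale after 14 days.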

[2] = tested on: sicklepod (Cassia obtusifolia, CASOB); experiment: as above; conditions: for phytotoxicity rating CASOB: pre-emerge, 14 days after application, scale 0-100; for Pre-emerge Herbicidal Activity CASOB: phytotoxicity rating 0-100, 14 days after application
Method in brief: as §1

[3] = tested on: barnyardgrass (Echinochloa crus-galli, ECHCG); experiment: as above; conditions: for phytotoxicity rating ECHCG: pre-emerge, 14 days after application, scale 0-100; for Pre-emerge Herbicidal Activity ECHCG: phytotoxicity rating 0-100, 14 days after application
Method in brief: as §1

[4] = tested on: large crabgrass (Digitaria sanguinalis, DIGSA); experiment: as above; conditions: for phytotoxicity rating DIGSA: pre-emerge, 14 days after application, scale 0-100; for Pre-emerge Herbicidal Activity DIGSA: phytotoxicity rating 0-100, 14 days after application
Method in brief: as §1

[5] = tested on: green foxtail (Setaria viridis, SETVI); experiment: as above; conditions: for phytotoxicity rating SETVI: pre-emerge, 14 days after application, scale 0-100; for Pre-emerge Herbicidal Activity SETVI: phytotoxicity rating 0-100, 14 days after application
Method in brief: as §1

[6] = tested on: lambsquarters (Chenopodium album, CHEAL); experiment: as above; conditions: for phytotoxicity rating CHEAL: pre-emerge, 14 days after application, scale 0-100; for Pre-emerge Herbicidal Activity CHEAL: phytotoxicity rating 0-100, 14 days after application
Method in brief: as §1

[7] = tested on: ivyleaf morningglory (Ipomoea hederacea, IPOHE); experiment: as above; conditions: for phytotoxicity rating IPOHE: pre-emerge, 14 days after application, scale 0-100; for Pre-emerge Herbicidal Activity IPOHE: phytotoxicity rating 0-100, 14 days after application
Method in brief: as §1

[8] = tested on: upland rice (Oryza sp., var. Tebonnet, RICE); experiment: Pre-emerge test, crop safety; conditions: for phytotoxicity rating RICE (crop damage): pre-emerge, 14 days after application, scale 0-100; for Pre-emerge Herbicidal Activity RICE: crop damage rating 0-100, 14 days after application
Method in brief: (§2)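 Herbicidal damage is scored 0 (none) to 100 (complete plant death) two weeks after a simulated field spray. Rates span 15–1000 g ai/ha, delivered in acetone at 187 l/ha. For post-emergence treatments, plants have 2–3 leaves and the spray carries 0.25% v/v non-ionic surfactant.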

[9] = tested on: field corn (Zea mays L., var. Dekalb 535, CORN); experiment: Pre-emerge test, crop safety; conditions: for phytotoxicity rating CORN (crop damage): pre-emerge, 14 days after application, scale 0-100; for Pre-emerge Herbicidal Activity CORN: crop damage rating 0-100, 14 days after application
Method in brief: as §2

[10] = tested on: upland rice (Oryza sp., var. Tebonnet, RICE); experiment: Post-emerge test, crop safety; conditions: post-emerge, 14 days after application, rating scale 0-100
Method in brief: as §1

[11] = tested on: field corn (Zea mays L., var. Dekalb 535, CORN); experiment: Post-emerge test, crop safety; conditions: post-emerge, 14 days after application, rating scale 0-100
Method in brief: as §1

[12] = tested on: velvetleaf (Abutilon theophrasti, ABUTH); experiment: Post-emerge test, greenhouse herbicide activity screening; conditions: post-emerge, 14 days after application, rating scale 0-100
Method in brief: (§3)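 Compounds in acetone were track-sprayed at 15-1000 g ai/ha (187 l/ha) on sandy loam pots: pre-emerge one day after seeding, post-emerge at 2-3 leaf stage with 0.25% v/v non-ionic surfactant. Phytotoxicity was rated 14 days later on a 0 (no damage) to 100 (complete death) scale.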

[13] = tested on: sicklepod (Cassia obtusifolia, CASOB); experiment: as above; conditions: post-emerge, 14 days after application, rating scale 0-100
Method in brief: as §3

[14] = tested on: johnsongrass (Sorghum halepense, SORHA); experiment: as above; conditions: post-emerge, 14 days after application, rating scale 0-100
Method in brief: as §3

[15] = tested on: barnyardgrass (Echinochloa crus-galli, ECHCG); experiment: as above; conditions: post-emerge, 14 days after application, rating scale 0-100
Method in brief: as §3

[16] = tested on: large crabgrass (Digitaria sanguinalis, DIGSA); experiment: as above; conditions: post-emerge, 14 days after application, rating scale 0-100
Method in brief: as §3

[17] = tested on: green foxtail (Setaria viridis, SETVI); experiment: as above; conditions: post-emerge, 14 days after application, rating scale 0-100
Method in brief: as §3

[18] = tested on: redroot pigweed (Amaranthus retroflexus, AMARE); experiment: as above; conditions: post-emerge, 14 days after application
Method in brief: as §3

[19] = tested on: lambsquarters (Chenopodium album, CHEAL); experiment: as above; conditions: post-emerge, 14 days after application, rating scale 0-100
Method in brief: as §3

[20] = tested on: ivyleaf morningglory (Ipomoea hederacea, IPOHE); experiment: as above; conditions: post-emerge, 14 days after application, rating scale 0-100
Method in brief: as §3

[21] = tested on: redroot pigweed (Amaranthus retroflexus, AMARE); experiment: Pre-emerge test, greenhouse herbicide activity screening; conditions: for phytotoxicity rating AMARE: pre-emerge, 14 days after application, scale 0-100; for Pre-emerge Herbicidal Activity AMARE: phytotoxicity rating 0-100, 14 days after application
Method in brief: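 Visual ratings on a 0-100 scale (0 no damage, 100 all plants dead) were taken at 14 days after treatment. Rates of 15-1000 g ai/ha in acetone, 187 l/ha, were sprayed onto soil one day after planting (pre-emerge) or onto 2-3 leaf plants with 0.25% v/v surfactant (post-emerge).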

[22] = 250 g ai/ha, rating scale 0-100

COc1ccccc1C=CC(=O)Nc1c(OC)c(Cl)cc(F)c1-n1c(=O)cc(C(F)(F)F)n(C)c1=O [2-127]
100: phytotoxicity rating ABUTH ([1]; 63 g ai/ha) | phytotoxicity rating ABUTH ([1]; 250 g ai/ha) | phytotoxicity rating DIGSA ([4]; 250 g ai/ha) | phytotoxicity rating CHEAL ([6]; 63 g ai/ha) | phytotoxicity rating CHEAL ([6]; 250 g ai/ha) | ABUTH phytotoxicity rating ([12]; 63 g ai/ha) | ABUTH phytotoxicity rating ([12]; 250 g ai/ha) | CASOB phytotoxicity rating ([13]; 63 g ai/ha) | AMARE phytotoxicity rating ([18]; 63 g ai/ha, rating scale 0-100) | AMARE phytotoxicity rating [18, 22] | CHEAL phytotoxicity rating ([19]; 250 g ai/ha) | IPOHE phytotoxicity rating ([20]; 63 g ai/ha) | phytotoxicity rating AMARE ([21]; 250 g ai/ha)
90: phytotoxicity rating AMARE ([21]; 63 g ai/ha)
35: RICE phytotoxicity rating (crop damage) ([10]; 250 g ai/ha)
0: phytotoxicity rating CASOB ([2]; 63 g ai/ha) | phytotoxicity rating ECHCG ([3]; 63 g ai/ha) | phytotoxicity rating IPOHE ([7]; 63 g ai/ha) | phytotoxicity rating RICE (crop damage) ([8]; 63 g ai/ha) | phytotoxicity rating CORN (crop damage) ([9]; 63 g ai/ha) | phytotoxicity rating CORN (crop damage) ([9]; 250 g ai/ha)
80: phytotoxicity rating SETVI ([5]; 250 g ai/ha)
60: CASOB phytotoxicity rating ([13]; 250 g ai/ha)
50: phytotoxicity rating IPOHE ([7]; 250 g ai/ha)
10: phytotoxicity rating RICE (crop damage) ([8]; 250 g ai/ha) | CORN phytotoxicity rating (crop damage) ([11]; 63 g ai/ha)
15: CORN phytotoxicity rating (crop damage) ([11]; 250 g ai/ha)
40: phytotoxicity rating CASOB ([2]; 250 g ai/ha) | phytotoxicity rating ECHCG ([3]; 250 g ai/ha) | SETVI phytotoxicity rating ([17]; 250 g ai/ha)
30: phytotoxicity rating DIGSA ([4]; 63 g ai/ha) | RICE phytotoxicity rating (crop damage) ([10]; 63 g ai/ha) | ECHCG phytotoxicity rating ([15]; 63 g ai/ha) | DIGSA phytotoxicity rating ([16]; 250 g ai/ha) | SETVI phytotoxicity rating ([17]; 63 g ai/ha)
20: phytotoxicity rating SETVI ([5]; 63 g ai/ha) | SORHA phytotoxicity rating ([14]; 63 g ai/ha) | SORHA phytotoxicity rating ([14]; 250 g ai/ha) | ECHCG phytotoxicity rating ([15]; 250 g ai/ha) | DIGSA phytotoxicity rating ([16]; 63 g ai/ha)
70: CHEAL phytotoxicity rating ([19]; 63 g ai/ha)
95: IPOHE phytotoxicity rating ([20]; 250 g ai/ha)

COc1c(Cl)cc(F)c(-n2c(=O)cc(C(F)(F)F)n(C)c2=O)c1NC(=O)OCc1ccccn1 [4-36]
60: Pre-emerge Herbicidal Activity SETVI ([5]; 63 g ai/ha) | Pre-emerge Herbicidal Activity RICE ([8]; 63 g ai/ha) | phytotoxicity rating RICE (crop damage) ([10]; 63 g ai/ha) | phytotoxicity rating ECHCG ([15]; 250 g ai/ha)
100: Pre-emerge Herbicidal Activity ABUTH ([1]; 63 g ai/ha) | Pre-emerge Herbicidal Activity ABUTH ([1]; 250 g ai/ha) | Pre-emerge Herbicidal Activity CASOB ([2]; 250 g ai/ha) | Pre-emerge Herbicidal Activity DIGSA ([4]; 250 g ai/ha) | Pre-emerge Herbicidal Activity SETVI ([5]; 250 g ai/ha) | Pre-emerge Herbicidal Activity CHEAL ([6]; 63 g ai/ha) | Pre-emerge Herbicidal Activity CHEAL ([6]; 250 g ai/ha) | Pre-emerge Herbicidal Activity IPOHE ([7]; 63 g ai/ha) | Pre-emerge Herbicidal Activity IPOHE ([7]; 250 g ai/ha) | Pre-emerge Herbicidal Activity CORN ([9]; 250 g ai/ha) | phytotoxicity rating RICE (crop damage) ([10]; 250 g ai/ha) | phytotoxicity rating CORN (crop damage) ([11]; 250 g ai/ha) | phytotoxicity rating ABUTH ([12]; 63 g ai/ha) | phytotoxicity rating ABUTH ([12]; 250 g ai/ha) | phytotoxicity rating CASOB ([13]; 63 g ai/ha) | phytotoxicity rating CASOB ([13]; 250 g ai/ha) | phytotoxicity rating AMARE ([18]; 63 g ai/ha, rating scale 0-100 (0 no damage, 100 complete death)) | phytotoxicity rating AMARE [18, 22] | phytotoxicity rating CHEAL ([19]; 63 g ai/ha) | phytotoxicity rating CHEAL ([19]; 250 g ai/ha) | phytotoxicity rating IPOHE ([20]; 63 g ai/ha) | phytotoxicity rating IPOHE ([20]; 250 g ai/ha) | Pre-emerge Herbicidal Activity AMARE ([21]; 250 g ai/ha)
30: Pre-emerge Herbicidal Activity ECHCG ([3]; 63 g ai/ha) | Pre-emerge Herbicidal Activity DIGSA ([4]; 63 g ai/ha) | phytotoxicity rating DIGSA ([16]; 63 g ai/ha)
90: Pre-emerge Herbicidal Activity ECHCG ([3]; 250 g ai/ha) | Pre-emerge Herbicidal Activity CORN ([9]; 63 g ai/ha) | phytotoxicity rating SORHA ([14]; 250 g ai/ha) | phytotoxicity rating SETVI ([17]; 63 g ai/ha) | phytotoxicity rating SETVI ([17]; 250 g ai/ha) | Pre-emerge Herbicidal Activity AMARE ([21]; 63 g ai/ha)
95: Pre-emerge Herbicidal Activity RICE ([8]; 250 g ai/ha)
10: phytotoxicity rating SORHA ([14]; 63 g ai/ha)
70: phytotoxicity rating DIGSA ([16]; 250 g ai/ha)
20: phytotoxicity rating ECHCG ([15]; 63 g ai/ha)
50: phytotoxicity rating CORN (crop damage) ([11]; 63 g ai/ha)
80: Pre-emerge Herbicidal Activity CASOB ([2]; 63 g ai/ha)

— patent US6355799B1, “Substituted benzene compounds, process for their preparation, and herbicidal and defoliant compositions containing them” (ISK Americas Incorporated, priority 1997, dated 2002)
